Structures are written as SMILES. Some results are limits rather than exact numbers.

ROCK2, sequence (O75116 whole entry, species assumed): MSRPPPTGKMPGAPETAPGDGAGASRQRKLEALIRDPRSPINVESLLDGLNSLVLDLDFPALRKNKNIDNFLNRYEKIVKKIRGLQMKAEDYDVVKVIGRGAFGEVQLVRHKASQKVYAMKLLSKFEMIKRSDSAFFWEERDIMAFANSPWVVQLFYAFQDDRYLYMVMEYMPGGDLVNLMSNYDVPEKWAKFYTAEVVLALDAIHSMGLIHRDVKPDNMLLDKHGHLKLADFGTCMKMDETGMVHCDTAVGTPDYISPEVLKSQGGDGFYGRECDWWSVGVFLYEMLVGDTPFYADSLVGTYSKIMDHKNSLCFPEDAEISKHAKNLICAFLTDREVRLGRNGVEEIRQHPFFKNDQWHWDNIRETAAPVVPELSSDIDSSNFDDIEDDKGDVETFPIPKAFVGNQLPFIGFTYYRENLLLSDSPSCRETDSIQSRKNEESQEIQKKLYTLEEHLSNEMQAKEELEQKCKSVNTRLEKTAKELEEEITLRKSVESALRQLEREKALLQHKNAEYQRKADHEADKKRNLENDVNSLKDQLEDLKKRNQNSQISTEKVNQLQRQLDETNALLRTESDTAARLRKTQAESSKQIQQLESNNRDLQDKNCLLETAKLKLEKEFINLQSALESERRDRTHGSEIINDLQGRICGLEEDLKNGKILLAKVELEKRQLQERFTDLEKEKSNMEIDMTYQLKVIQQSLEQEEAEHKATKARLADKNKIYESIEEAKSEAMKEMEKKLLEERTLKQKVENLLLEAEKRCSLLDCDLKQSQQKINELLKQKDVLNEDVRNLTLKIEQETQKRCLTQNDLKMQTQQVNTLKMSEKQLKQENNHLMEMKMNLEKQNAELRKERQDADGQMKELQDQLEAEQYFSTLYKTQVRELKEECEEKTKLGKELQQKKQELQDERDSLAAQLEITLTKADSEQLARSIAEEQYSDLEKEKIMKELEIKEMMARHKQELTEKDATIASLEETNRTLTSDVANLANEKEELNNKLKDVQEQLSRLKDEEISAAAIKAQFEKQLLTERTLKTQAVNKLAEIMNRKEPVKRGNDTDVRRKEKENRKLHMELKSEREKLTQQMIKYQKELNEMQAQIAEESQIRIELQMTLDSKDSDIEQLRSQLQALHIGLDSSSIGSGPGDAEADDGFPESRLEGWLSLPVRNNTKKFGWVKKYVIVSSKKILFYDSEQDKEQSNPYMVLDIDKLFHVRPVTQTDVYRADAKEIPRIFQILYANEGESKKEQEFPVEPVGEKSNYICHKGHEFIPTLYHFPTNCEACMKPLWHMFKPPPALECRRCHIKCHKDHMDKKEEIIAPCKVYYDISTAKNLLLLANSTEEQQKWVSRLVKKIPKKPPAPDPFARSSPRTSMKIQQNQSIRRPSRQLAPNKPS

The assay concerns the target ROCK2 (Homo sapiens (Human), UniProt O75116). As to the kind of experiment: ROCK2 kinase inhibition assay (FITC peptide substrate, LABCHIP 3000 Reader). To be noted: 5 μM ATP, 1.5 μM peptide substrate. It is filed as biochemical. The procedure: The effectiveness of compounds of the present invention as ROCK inhibitors can be determined in a 30 μL assay containing 20 mM HEPES, pH 7.5, 20 mM MgCl2, 0.015% Brij-35, 4 mM DTT, 5 μM ATP and 1.5 μM peptide substrate (FITC-AHA-AKRRRLSSLRA-OH) (SEQ ID NO. 1). Compounds were dissolved in DMSO so that the final concentration of DMSO was <2%, and the reaction was initiated with Rho kinase variants. After incubation, the reaction was terminated by the addition of EDTA and the phosphorylated and non-phosphorylated peptides separated using a LABCHIP® 3000 Reader (Caliper Life Sciences). […] Compounds were tested in dose-response format, and the inhibition of kinase activity was calculated at each concentration of compound. The inhibition data were fit using a curve-fitting program to determine the IC50; i.e., the concentration of compound required to inhibit 50% of kinase activity.
Representative examples were tested in the ROCK2 assay described above and found having ROCK2 inhibitory activity.
On to `O=C1N(c2ccc(-c3cn[nH]c3)cc2)CC2(CCOCC2)N1Cc1cccc(F)c1` [Example 13, 3-(4-(1H-pyrazol-4-yl)phenyl)-1-(3-fluorobenzyl)-8-oxa-1,3-diazaspiro[4.5]decan-2-one], for which the IC50 – broadly, the concentration that inhibits the measured activity by half – is 3 to 30 nM. With `COc1cccc(CN2C(=O)N(c3ccc(-c4cn[nH]c4)cc3)CC23CCN(C(=O)OCC(C)C)CC3)c1` [Example 95, isobutyl 3-(4-(1H-pyrazol-4-yl)phenyl)-1-(3-methoxybenzyl)-2-oxo-1,3,8-triazaspiro[4.5]decane-8-carboxylate], the IC50 is less than 3 nM. As for `CCc1nc(N2CC3(CCN(C(=O)OC)CC3)N(Cc3cccc(F)c3C)C2=O)ccc1-c1cn[nH]c1` [Example 104, methyl 3-(6-ethyl-5-(1H-pyrazol-4-yl)pyridin-2-yl)-1-(3-fluoro-2-methylbenzyl)-2-oxo-1,3,8-triazaspiro[4.5]decane-8-carboxylate], the figure is less than 3 nM; as for `COCC(=O)N1CCC2(CC1)CN(c1ccc(-c3cn[nH]c3)cn1)C(=O)N2Cc1cccc(OC)c1` [Example 197, 3-(5-(1H-pyrazol-4-yl)pyridin-2-yl)-8-(2-methoxyacetyl)-1-(3-methoxybenzyl)-1,3,8-triazaspiro[4.5]decan-2-one], 3 to 30 nM. In turn, `COc1cccc(CN2C(=O)N(c3ccc(-c4cn[nH]c4)cc3)CC23CCN(C(=O)[C@H](C)O)CC3)c1` [Example 177, (S)-3-(4-(1H-pyrazol-4-yl)phenyl)-8-(2-hydroxypropanoyl)-1-(3-methoxybenzyl)-1,3,8-triazaspiro[4.5]decan-2-one] registered an IC50 of less than 3 nM.

`O=C(c1cccc(CN2C(=O)N(c3ccc(-c4cn[nH]c4)cc3)CC23CCOCC3)c1)N1CC[C@H](O)C1` [Example 44, (S)-3-(4-(1H-pyrazol-4-yl)phenyl)-1-(3-(3-hydroxypyrrolidine-1-carbonyl)benzyl)-8-oxa-1,3-diazaspiro[4.5]decan-2-one] came in with an IC50 of 30 to 250 nM. For `COC(=O)N1CCC2(CC1)CN(c1ccc(-c3cn[nH]c3)c(OC)n1)C(=O)N2Cc1cccc(OC)c1` [Example 102, methyl 3-(6-methoxy-5-(1H-pyrazol-4-yl)pyridin-2-yl)-1-(3-methoxybenzyl)-2-oxo-1,3,8-triazaspiro[4.5]decane-8-carboxylate], the IC50 was less than 3 nM. As for `Cc1c(F)cccc1CN1C(=O)N(c2ccc(-c3cn[nH]c3)cc2)CC12CCN(C(=O)OC(C)(C)C)CC2` [Example 49, tert-butyl 3-(4-(1H-pyrazol-4-yl)phenyl)-1-(3-fluoro-2-methylbenzyl)-2-oxo-1,3,8-triazaspiro[4.5]decane-8-carboxylate], the figure is 3 to 30 nM.

`COc1cccc(CN2C(=O)N(c3ccc(-c4cn[nH]c4)cc3)CC23CCN(CCC(F)(F)F)CC3)c1` [Example 121, 3-(4-(1H-pyrazol-4-yl)phenyl)-1-(3-methoxybenzyl)-8-(3,3,3-trifluoropropyl)-1,3,8-triazaspiro[4.5]decan-2-one] showed an IC50 of less than 3 nM. With `COc1cccc(CN2C(=O)N(c3ccc(-c4cn[nH]c4)cc3)CC23CCN(C(=O)C2CCC2)CC3)c1` [Example 172, 3-(4-(1H-pyrazol-4-yl)phenyl)-8-(cyclobutanecarbonyl)-1-(3-methoxybenzyl)-1,3,8-triazaspiro[4.5]decan-2-one] the figure was less than 3 nM; with `COc1cccc(CN2C(=O)N(c3ccc(-c4cn[nH]c4)cc3)CC23CCN(CC(O)CO)CC3)c1` (centres unmarked) [Example 120, 3-(4-(1H-pyrazol-4-yl)phenyl)-8-(2,3-dihydroxypropyl)-1-(3-methoxybenzyl)-1,3,8-triazaspiro[4.5]decan-2-one], less than 3 nM. `CNC(=O)CN1CCC2(CC1)CN(c1ccc(-c3cn[nH]c3)cc1)C(=O)N2Cc1cccc(OC)c1` [Example 168, 2-(3-(4-(1H-pyrazol-4-yl)phenyl)-1-(3-methoxybenzyl)-2-oxo-1,3,8-triazaspiro[4.5]decan-8-yl)-N-methylacetamide]: the IC50 is less than 3 nM. With `COC(=O)N1CCC2(CC1)CN(c1ccc(-c3cn[nH]c3)cc1)C(=O)N2Cc1cc(F)cc(OC)c1` [Example 109, methyl 3-(4-(1H-pyrazol-4-yl)phenyl)-1-(3-fluoro-5-methoxybenzyl)-2-oxo-1,3,8-triazaspiro[4.5]decane-8-carboxylate] the figure was less than 3 nM. Compound `O=C(NCC1CC1)c1cccc(CN2C(=O)N(c3ccc(-c4cn[nH]c4)cc3)CC23CCOCC3)c1` [Example 37, 3-((3-(4-(1H-pyrazol-4-yl)phenyl)-2-oxo-8-oxa-1,3-diazaspiro[4.5]decan-1-yl)methyl)-N-(cyclopropylmethyl)benzamide] registered an IC50 of less than 3 nM. With `CCc1nc(N2CC3(CCN(CC(F)F)CC3)N(Cc3cc(F)cc(OC)c3)C2=O)ccc1-c1cn[nH]c1` [Example 129, 8-(2,2-difluoroethyl)-3-(6-ethyl-5-(1H-pyrazol-4-yl)pyridin-2-yl)-1-(3-fluoro-5-methoxybenzyl)-1,3,8-triazaspiro[4.5]decan-2-one] the figure was 3 to 30 nM. With `COc1cccc(CN2C(=O)N(c3ccc(-c4cn[nH]c4)cn3)CC23CCN(C(=O)C(C)O)CC3)c1` (centres unmarked) [Example 198, 3-(5-(1H-pyrazol-4-yl)pyridin-2-yl)-8-(2-hydroxypropanoyl)-1-(3-methoxybenzyl)-1,3,8-triazaspiro[4.5]decan-2-one] the figure was 3 to 30 nM. As for `COc1cccc(CN2C(=O)N(c3ncc(-c4cn[nH]c4)c(OC)n3)CC23CCN(C(=O)CC(C)C)CC3)c1` [Example 214, 3-(4-methoxy-5-(1H-pyrazol-4-yl)pyrimidin-2-yl)-1-(3-methoxybenzyl)-8-(3-methylbutanoyl)-1,3,8-triazaspiro[4.5]decan-2-one], the IC50 lay within 3 to 30 nM. `COc1cccc(CN2C(=O)N(c3ccc(-c4cn[nH]c4)cc3)CC23CCN(CCC(C)C)CC3)c1` [Example 117, 3-(4-(1H-pyrazol-4-yl)phenyl)-8-isopentyl-1-(3-methoxybenzyl)-1,3,8-triazaspiro[4.5]decan-2-one]: the IC50 was less than 3 nM. With `CCc1nc(N2CC3(CCN(C(=O)CO)CC3)N(Cc3cc(F)cc(OC)c3)C2=O)ccc1-c1cn[nH]c1` [Example 186, 3-(6-ethyl-5-(1H-pyrazol-4-yl)pyridin-2-yl)-1-(3-fluoro-5-methoxybenzyl)-8-(2-hydroxyacetyl)-1,3,8-triazaspiro[4.5]decan-2-one] the figure was less than 3 nM. Regarding `COc1cccc(CN2C(=O)N(c3ccc(-c4cn[nH]c4)c(OC)n3)CC23CCN(C(=O)CN(C)C)CC3)c1` [Example 218, 8-(2-(dimethylamino)acetyl)-3-(6-methoxy-5-(1H-pyrazol-4-yl)pyridin-2-yl)-1-(3-methoxybenzyl)-1,3,8-triazaspiro[4.5]decan-2-one], the IC50 is less than 3 nM. As for `COc1cccc(CN2C(=O)N(c3ccc(-c4cn[nH]c4)cn3)CC23CCN(C(C)=O)CC3)c1` [Example 50, 3-(5-(1H-pyrazol-4-yl)pyridin-2-yl)-8-acetyl-1-(3-methoxybenzyl)-1,3,8-triazaspiro[4.5]decan-2-one], the figure is 3 to 30 nM. Take `COc1cccc(CN2C(=O)N(c3ccc(-c4cn[nH]c4)cc3)CC23CCN(C2COC2)CC3)c1` [Example 235, 3-(4-(1H-pyrazol-4-yl)phenyl)-1-(3-methoxybenzyl)-8-(oxetan-3-yl)-1,3,8-triazaspiro[4.5]decan-2-one]: the IC50 was less than 3 nM. With `COc1cccc(CN2C(=O)N(c3ccc(-c4cn[nH]c4)cn3)CC23CCN(CCO)CC3)c1` [Example 159, 3-(5-(1H-pyrazol-4-yl)pyridin-2-yl)-8-(2-hydroxyethyl)-1-(3-methoxybenzyl)-1,3,8-triazaspiro[4.5]decan-2-one] the figure was less than 3 nM. Compound `COc1cccc(CN2C(=O)N(c3ncc(-c4cn[nH]c4)c(OC)n3)CC23CCN(C(=O)[C@@H]2CC2(F)F)CC3)c1` [Example 213, (S)-8-(2,2-difluorocyclopropane-carbonyl)-3-(4-methoxy-5-(1H-pyrazol-4-yl)pyrimidin-2-yl)-1-(3-methoxybenzyl)-1,3,8-triazaspiro[4.5]decan-2-one] registered an IC50 of 3 to 30 nM. In the case of `COc1cc(F)cc(CN2C(=O)N(c3ccc(-c4cn[nH]c4)cc3)CC23CCOCC3)c1` [Example 10, 3-(4-(1H-pyrazol-4-yl)phenyl)-1-(3-fluoro-5-methoxybenzyl)-8-oxa-1,3-diazaspiro[4.5]decan-2-one], the 50% inhibitory concentration (IC50) is less than 3 nM. With `CCc1nc(N2CC3(CCN(C(=O)C(C)(C)O)CC3)N(Cc3cc(F)cc(OC)c3)C2=O)ccc1-c1cn[nH]c1` [Example 187, 3-(6-ethyl-5-(1H-pyrazol-4-yl)pyridin-2-yl)-1-(3-fluoro-5-methoxybenzyl)-8-(2-hydroxy-2-methylpropanoyl)-1,3,8-triazaspiro[4.5]decan-2-one] the figure was less than 3 nM; with `COc1cccc(CN2C(=O)N(c3ccc(-c4cn[nH]c4)cc3)CC23CCN(C)CC3)c1` [Example 113, 3-(4-(1H-pyrazol-4-yl)phenyl)-1-(3-methoxybenzyl)-8-methyl-1,3,8-triazaspiro[4.5]decan-2-one], less than 3 nM. With `CN(C)C(=O)c1cccc(CN2C(=O)N(c3ccc(-c4cn[nH]c4)cc3)CC23CCOCC3)c1` [Example 42, 3-((3-(4-(1H-pyrazol-4-yl)phenyl)-2-oxo-8-oxa-1,3-diazaspiro[4.5]decan-1-yl)methyl)-N,N-dimethylbenzamide] the figure was 30 to 250 nM; with `Cc1ccc(F)cc1CN1C(=O)N(c2ccc(-c3cn[nH]c3)cc2)CC12CCOCC2` [Example 27, 3-(4-(1H-pyrazol-4-yl)phenyl)-1-(5-fluoro-2-methylbenzyl)-8-oxa-1,3-diazaspiro[4.5]decan-2-one], 30 to 250 nM.
